# According to US12551474B2, “Use of pridopidine for the treatment of fragile X syndrome” (PRILENIA NEUROTHERAPEUTICS LTD., priority 2017, dated 2026):
# Like-named read-outs stand apart in the source and are kept apart here.
# Assays:
# [1] = tested on: FXS neurons; test: neurite outgrowth in FXS neurons with genetic or pharmacological inactivation of S1R; format: cell-based, human
# Description: To investigate whether the rescue of neurite outgrowth deficits in FXS neurons following pridopidine treatment is mediated via sigma-1 receptor (S1R), virally-delivered Cas9 was used to target and inactivate S1R in FXS NPC prior to neuronal differentiation. Effective inactivation of S1R gene and loss of its protein product was confirmed by western blot (FIG. 6A).
# The effect of a pharmacological inhibitor of S1R on pridopidine-mediated neurite outgrowth improvements in FXS neurons was further tested.
# [2] = tested on: human FXS neurons; conditions: 8-day period, vs DMSO
# Description: Control cells used were a human Embryonic Stem (ES) cell line.
# FIG. 2A upper panels show MAP2/Tuj-1/DNA immunostaining; lower panels show GABA/NeuN/DNA immunostaining.
# Neurite growth is a surrogate of neuronal development and maturation.
# Open squares show data from DMSO treated FXS neurons.
# [3] = tested on: human patients afflicted with a FXS related disorder; conditions: periodic (daily or twice daily) oral administration, pediatric or adult patients
# Experimental: The human patients are pediatric patients or adult patients.
# A pridopidine composition as described herein is administered orally to a subject suffering from a FXS related disorder.
# [4] = tested on: human patients afflicted with FXS; conditions: periodic (daily or twice daily) oral administration, pediatric or adult patients
# [5] = tested on: rat striatum; conditions: transcriptomic analysis; cited from earlier work
# [6] = tested on: Q175 knock-in (Q175 KI) HD mouse model; conditions: cited from earlier work
# [7] = tested on: neuroblastoma cell line; conditions: S1R-dependent; cited from earlier work
smiles,measurement,setting,value
"CCCN(CCC)CCc1ccc(OC)c(OCCc2ccccc2)c1 [NE-100, reference compound]",effect on pridopidine-mediated neurite outgrowth improvement in FXS neurons,[1]; co-administration of NE-100 (1 μM) with pridopidine,blocked the effect of pridopidine
"CCCN1CCC(c2cccc(S(C)(=O)=O)c2)CC1 [pridopidine, 4-[3-(methylsulfonyl)phenyl]-1-propyl-piperidine]",neurite growth in FXS neurons,[2]; 1 uM pridopidine,significant improvement in neurite growth
same,neurite growth in FXS neurons,[2]; 5 uM pridopidine,significant improvement in neurite growth
same,neurite outgrowth in FXS neurons,[1]; 100 nM pridopidine for 24 hrs,improvement in neurite outgrowth
same,improvement in neurite outgrowth in FXS neurons in which S1R was inactivated (S1RKO),"[1]; 100 nM pridopidine for 24 hrs, S1RKO (Cas9)",abolished
same,treatment of a FXS related disorder,[3],effective
same,treatment of FXS,[4],effective
same,"expression of BDNF, D1R, GR and Akt/PI3K pathways",[5],activates expression
same,gene expression profile versus HD disease gene expression profile,[6],reversed pattern
same,secretion of BDNF,[7],enhances secretion
